Results from the NIST ThermoML archive (doi:10.1021/je900387e).
± gives the expanded uncertainty stated by the source.

Assay: xn = mol fraction of the nth substance listed
Conditions: Liquid, Pycnometric method

CCCCCl [1-chlorobutane] + O=C=O
Conditions	mass density [kg/m3]
327.6 K, 14940 kPa, x1 = 0.0981	822 ± 4
327.6 K, 15140 kPa, x1 = 0.0981	825 ± 4
332.4 K, 9070 kPa, x1 = 0.1488	732 ± 4
332.4 K, 9260 kPa, x1 = 0.1488	737 ± 4
332.4 K, 9420 kPa, x1 = 0.1488	740 ± 4
332.4 K, 9430 kPa, x1 = 0.0981	649 ± 4
332.4 K, 9510 kPa, x1 = 0.0981	654 ± 4
332.4 K, 9560 kPa, x1 = 0.0981	657 ± 4
332.4 K, 9590 kPa, x1 = 0.1488	744 ± 4
332.4 K, 9660 kPa, x1 = 0.0981	663 ± 4
332.4 K, 9750 kPa, x1 = 0.0483	421 ± 4
332.4 K, 9760 kPa, x1 = 0.0981	669 ± 4
332.4 K, 9760 kPa, x1 = 0.1488	748 ± 4
332.4 K, 9800 kPa, x1 = 0.0483	426 ± 4
332.4 K, 9860 kPa, x1 = 0.0483	433 ± 4
332.4 K, 9870 kPa, x1 = 0.0981	675 ± 4
332.4 K, 9910 kPa, x1 = 0.0483	441 ± 4
332.4 K, 9940 kPa, x1 = 0.1488	751 ± 4
332.4 K, 9970 kPa, x1 = 0.0483	449 ± 4
332.4 K, 10000 kPa, x1 = 0.0981	682 ± 4
332.4 K, 10050 kPa, x1 = 0.0483	458 ± 4
332.4 K, 10130 kPa, x1 = 0.0981	687 ± 4
332.4 K, 10130 kPa, x1 = 0.1488	755 ± 4
332.4 K, 10150 kPa, x1 = 0.0483	469 ± 4
332.4 K, 10200 kPa, x1 = 0.0483	478 ± 4
332.4 K, 10280 kPa, x1 = 0.0483	487 ± 4
332.4 K, 10290 kPa, x1 = 0.0981	694 ± 4
332.4 K, 10340 kPa, x1 = 0.1488	758 ± 4
332.4 K, 10390 kPa, x1 = 0.0483	497 ± 4
332.4 K, 10470 kPa, x1 = 0.0981	700 ± 4
332.4 K, 10490 kPa, x1 = 0.0483	507 ± 4
332.4 K, 10570 kPa, x1 = 0.1488	762 ± 4
332.4 K, 10590 kPa, x1 = 0.0483	518 ± 4
332.4 K, 10650 kPa, x1 = 0.0981	707 ± 4
332.4 K, 10700 kPa, x1 = 0.0483	529 ± 4
332.4 K, 10800 kPa, x1 = 0.1488	766 ± 4
332.4 K, 10830 kPa, x1 = 0.0483	541 ± 4
332.4 K, 10850 kPa, x1 = 0.0981	713 ± 4
332.4 K, 10970 kPa, x1 = 0.0483	554 ± 4
332.4 K, 11030 kPa, x1 = 0.1488	770 ± 4
332.4 K, 11080 kPa, x1 = 0.0981	720 ± 4
332.4 K, 11140 kPa, x1 = 0.0483	569 ± 4
332.4 K, 11280 kPa, x1 = 0.1488	774 ± 4
332.4 K, 11330 kPa, x1 = 0.0981	727 ± 4
332.4 K, 11350 kPa, x1 = 0.0483	584 ± 4
332.4 K, 11560 kPa, x1 = 0.0483	598 ± 4
332.4 K, 11570 kPa, x1 = 0.1488	778 ± 4
332.4 K, 11590 kPa, x1 = 0.0981	734 ± 4
332.4 K, 11830 kPa, x1 = 0.0483	613 ± 4
332.4 K, 11840 kPa, x1 = 0.1488	782 ± 4
332.4 K, 11980 kPa, x1 = 0.0981	743 ± 4
332.4 K, 12120 kPa, x1 = 0.0483	629 ± 4
332.4 K, 12300 kPa, x1 = 0.0483	637 ± 4
332.4 K, 12330 kPa, x1 = 0.1488	788 ± 4
332.4 K, 12430 kPa, x1 = 0.0981	753 ± 4
332.4 K, 12530 kPa, x1 = 0.0483	648 ± 4
332.4 K, 12610 kPa, x1 = 0.0483	652 ± 4
332.4 K, 12820 kPa, x1 = 0.1488	794 ± 4
332.4 K, 12960 kPa, x1 = 0.0981	763 ± 4
332.4 K, 13360 kPa, x1 = 0.1488	800 ± 4
332.4 K, 13540 kPa, x1 = 0.0981	774 ± 4
332.4 K, 13940 kPa, x1 = 0.1488	806 ± 4
332.4 K, 14190 kPa, x1 = 0.0981	785 ± 4
332.4 K, 14570 kPa, x1 = 0.1488	813 ± 4
332.4 K, 14840 kPa, x1 = 0.1488	816 ± 4
332.4 K, 14900 kPa, x1 = 0.0981	795 ± 4
332.4 K, 15110 kPa, x1 = 0.0981	798 ± 4
333.3 K, 9630 kPa, x1 = 0.0744	545 ± 4
333.3 K, 9660 kPa, x1 = 0.0744	551 ± 4
333.3 K, 9690 kPa, x1 = 0.0744	556 ± 4
333.3 K, 9740 kPa, x1 = 0.0744	563 ± 4
333.3 K, 9810 kPa, x1 = 0.0744	571 ± 4
333.3 K, 9900 kPa, x1 = 0.0744	578 ± 4
333.3 K, 9980 kPa, x1 = 0.0744	586 ± 4
333.3 K, 10100 kPa, x1 = 0.0744	597 ± 4
333.3 K, 10250 kPa, x1 = 0.0744	608 ± 4
333.3 K, 10410 kPa, x1 = 0.0744	620 ± 4
333.3 K, 10600 kPa, x1 = 0.0744	632 ± 4
333.3 K, 10840 kPa, x1 = 0.0744	645 ± 4
333.3 K, 11110 kPa, x1 = 0.0744	658 ± 4
333.3 K, 11420 kPa, x1 = 0.0744	672 ± 4
333.3 K, 11800 kPa, x1 = 0.0744	686 ± 4
333.3 K, 12260 kPa, x1 = 0.0744	701 ± 4
333.3 K, 12810 kPa, x1 = 0.0744	717 ± 4
333.3 K, 13470 kPa, x1 = 0.0744	733 ± 4
333.3 K, 14290 kPa, x1 = 0.0744	750 ± 4
333.3 K, 14750 kPa, x1 = 0.0744	759 ± 4
333.3 K, 15240 kPa, x1 = 0.0744	768 ± 4
337.4 K, 9620 kPa, x1 = 0.1488	705 ± 4
337.4 K, 9770 kPa, x1 = 0.1488	709 ± 4
337.4 K, 9890 kPa, x1 = 0.0981	605 ± 4
337.4 K, 9930 kPa, x1 = 0.0744	509 ± 4
337.4 K, 9950 kPa, x1 = 0.1488	714 ± 4
337.4 K, 9960 kPa, x1 = 0.0483	378 ± 4
337.4 K, 9960 kPa, x1 = 0.0744	513 ± 4
337.4 K, 9980 kPa, x1 = 0.0981	612 ± 4
337.4 K, 10010 kPa, x1 = 0.0744	520 ± 4
337.4 K, 10040 kPa, x1 = 0.0483	384 ± 4
337.4 K, 10070 kPa, x1 = 0.0981	619 ± 4
337.4 K, 10080 kPa, x1 = 0.0744	527 ± 4
337.4 K, 10090 kPa, x1 = 0.0483	390 ± 4
337.4 K, 10150 kPa, x1 = 0.0981	625 ± 4
337.4 K, 10150 kPa, x1 = 0.1488	719 ± 4
337.4 K, 10160 kPa, x1 = 0.0483	396 ± 4
337.4 K, 10180 kPa, x1 = 0.0744	536 ± 4
337.4 K, 10230 kPa, x1 = 0.0483	402 ± 4
337.4 K, 10250 kPa, x1 = 0.0981	632 ± 4
337.4 K, 10280 kPa, x1 = 0.0744	547 ± 4
337.4 K, 10290 kPa, x1 = 0.0483	409 ± 4
337.4 K, 10360 kPa, x1 = 0.0483	415 ± 4
337.4 K, 10360 kPa, x1 = 0.0981	639 ± 4
337.4 K, 10360 kPa, x1 = 0.1488	724 ± 4
337.4 K, 10420 kPa, x1 = 0.0483	422 ± 4
337.4 K, 10420 kPa, x1 = 0.0744	560 ± 4
337.4 K, 10490 kPa, x1 = 0.0483	429 ± 4
337.4 K, 10500 kPa, x1 = 0.0981	647 ± 4
337.4 K, 10550 kPa, x1 = 0.0744	571 ± 4
337.4 K, 10570 kPa, x1 = 0.0483	436 ± 4
337.4 K, 10580 kPa, x1 = 0.1488	729 ± 4
337.4 K, 10630 kPa, x1 = 0.0981	654 ± 4
337.4 K, 10650 kPa, x1 = 0.0483	444 ± 4
337.4 K, 10700 kPa, x1 = 0.0744	583 ± 4
337.4 K, 10730 kPa, x1 = 0.0483	452 ± 4
337.4 K, 10790 kPa, x1 = 0.0981	662 ± 4
337.4 K, 10820 kPa, x1 = 0.0483	459 ± 4
337.4 K, 10840 kPa, x1 = 0.1488	735 ± 4
337.4 K, 10870 kPa, x1 = 0.0744	595 ± 4
337.4 K, 10900 kPa, x1 = 0.0483	468 ± 4
337.4 K, 10960 kPa, x1 = 0.0981	670 ± 4
337.4 K, 10990 kPa, x1 = 0.0483	477 ± 4
337.4 K, 11060 kPa, x1 = 0.0744	607 ± 4
337.4 K, 11090 kPa, x1 = 0.0483	485 ± 4
337.4 K, 11090 kPa, x1 = 0.1488	740 ± 4
337.4 K, 11170 kPa, x1 = 0.0981	678 ± 4
337.4 K, 11190 kPa, x1 = 0.0483	495 ± 4
337.4 K, 11270 kPa, x1 = 0.0483	501 ± 4
337.4 K, 11270 kPa, x1 = 0.0744	620 ± 4
337.4 K, 11340 kPa, x1 = 0.0483	508 ± 4
337.4 K, 11380 kPa, x1 = 0.0981	686 ± 4
337.4 K, 11380 kPa, x1 = 0.1488	746 ± 4
337.4 K, 11440 kPa, x1 = 0.0483	516 ± 4
337.4 K, 11510 kPa, x1 = 0.0483	521 ± 4
337.4 K, 11520 kPa, x1 = 0.0744	634 ± 4
337.4 K, 11640 kPa, x1 = 0.0981	694 ± 4
337.4 K, 11680 kPa, x1 = 0.1488	751 ± 4
337.4 K, 11830 kPa, x1 = 0.0744	648 ± 4
337.4 K, 11930 kPa, x1 = 0.0981	703 ± 4
337.4 K, 12030 kPa, x1 = 0.1488	757 ± 4
337.4 K, 12200 kPa, x1 = 0.0744	663 ± 4
337.4 K, 12240 kPa, x1 = 0.0981	711 ± 4
337.4 K, 12380 kPa, x1 = 0.1488	762 ± 4
337.4 K, 12580 kPa, x1 = 0.0981	721 ± 4
337.4 K, 12630 kPa, x1 = 0.0744	679 ± 4
337.4 K, 12750 kPa, x1 = 0.1488	768 ± 4
337.4 K, 12950 kPa, x1 = 0.0981	729 ± 4
337.4 K, 13160 kPa, x1 = 0.0744	695 ± 4
337.4 K, 13180 kPa, x1 = 0.1488	774 ± 4
337.4 K, 13380 kPa, x1 = 0.0981	739 ± 4
337.4 K, 13450 kPa, x1 = 0.1488	778 ± 4
337.4 K, 13780 kPa, x1 = 0.1488	781 ± 4
337.4 K, 13800 kPa, x1 = 0.0744	713 ± 4
337.4 K, 14110 kPa, x1 = 0.0981	753 ± 4
337.4 K, 14120 kPa, x1 = 0.1488	786 ± 4
337.4 K, 14480 kPa, x1 = 0.1488	790 ± 4
337.4 K, 14580 kPa, x1 = 0.0744	731 ± 4
337.4 K, 14830 kPa, x1 = 0.1488	794 ± 4
337.4 K, 14970 kPa, x1 = 0.0981	768 ± 4
337.4 K, 15140 kPa, x1 = 0.0744	742 ± 4
337.4 K, 15300 kPa, x1 = 0.0981	774 ± 4
